Test results published in PubChem BioAssay (NCI).
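Results reflect a 48-hour exposure of cells in 96-well plates to compound at five concentrations. Definition used: TGI = concentration required for complete inhibition of growth.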

Columns and labels:
Test in all cases: DTP human tumour cell line panel, 48 h
[1] = tested on: 786-0 renal
[2] = tested on: A498 renal
[3] = tested on: A549 NSCLC
[4] = tested on: ACHN renal
[5] = tested on: BT-549 breast
[6] = tested on: CAKI-1 renal
[7] = tested on: CCRF-CEM leukemia
[8] = tested on: COLO 205 colon
[9] = tested on: DU-145 prostate
[10] = tested on: HCC-2998 colon
[11] = tested on: HCT-116 colon
[12] = tested on: HCT-15 colon
[13] = tested on: HL-60(TB) leukemia
[14] = tested on: HOP-62 NSCLC
[15] = tested on: HOP-92 NSCLC
[16] = tested on: HS 578T breast
[17] = tested on: HT29 colon
[18] = tested on: IGROV1 ovarian
[19] = tested on: K-562 leukemia
[20] = tested on: KM12 colon
[21] = tested on: LOX IMVI melanoma
[22] = tested on: M14 melanoma
[23] = tested on: MALME-3M melanoma
[24] = tested on: MCF7 breast
[25] = tested on: MDA-MB-231 breast
[26] = tested on: MDA-MB-435
[27] = tested on: MDA-N
[28] = tested on: MOLT-4 leukemia
[29] = tested on: NCI-H226 lung
[30] = tested on: NCI-H23 lung
[31] = tested on: NCI-H460 lung
[32] = tested on: NCI-H522 lung
[33] = tested on: NCI/ADR-RES ovarian
[34] = tested on: OVCAR-3 ovarian
[35] = tested on: OVCAR-4 ovarian
[36] = tested on: OVCAR-5 ovarian
[37] = tested on: OVCAR-8 ovarian
[38] = tested on: PC-3 prostate
[39] = tested on: RPMI-8226 leukemia
[40] = tested on: RXF 393 renal
[41] = tested on: SF-268 CNS
[42] = tested on: SF-295 CNS
[43] = tested on: SF-539 CNS
[44] = tested on: SK-MEL-2 melanoma
[45] = tested on: SK-MEL-28 melanoma
[46] = tested on: SK-MEL-5 melanoma
[47] = tested on: SN12C renal
[48] = tested on: SNB-19 CNS
[49] = tested on: SNB-75 CNS
[50] = tested on: SR leukemia
[51] = tested on: SW-620 colon
[52] = tested on: T-47D breast
[53] = tested on: TK-10 renal
[54] = tested on: U251 CNS
[55] = tested on: UACC-257 melanoma
[56] = tested on: UACC-62 melanoma
[57] = tested on: UO-31 renal

Measured: TGI

Cc1ccc2c(c1)[nH]c(=S)n2/C=C1\C(=O)Oc2ccccc2C1=O
71.5 µM: [15]
> 100 µM: [1] | [2] | [3] | [4] | [5] | [6] | [7] | [8] | [9] | [10] | [11] | [12] | [13] | [14] | [16] | [17] | [18] | [19] | [20] | [21] | [22] | [23] | [24] | [25] | [26] | [27] | [28] | [29] | [30] | [31] | [32] | [33] | [34] | [35] | [36] | [37] | [38] | [39] | [40] | [41] | [42] | [43] | [44] | [45] | [46] | [47] | [48] | [49] | [50] | [51] | [52] | [53] | [54] | [55] | [56] | [57]
